# Test results published in PubChem BioAssay AID588562 (The Scripps Research Institute Molecular Screening Center, 2011).
# Activity calls are given as the source filed them. How the calls were made is not given here.
# Biological target: Neuropeptides B/W receptor type 1 (Homo sapiens) (UniProt P48145)
# Assay: human NPBW1 receptor blockade – cell-based, fluorescence, percent inhibition, late-stage follow-up (AID 588562)
# Conditions: GPR7-expressing cells, fluorescence antagonist assay; at 20 µM; active compounds read high
# Chain of Neuropeptides B/W receptor type 1 (Homo sapiens) (P48145 whole entry, looked up): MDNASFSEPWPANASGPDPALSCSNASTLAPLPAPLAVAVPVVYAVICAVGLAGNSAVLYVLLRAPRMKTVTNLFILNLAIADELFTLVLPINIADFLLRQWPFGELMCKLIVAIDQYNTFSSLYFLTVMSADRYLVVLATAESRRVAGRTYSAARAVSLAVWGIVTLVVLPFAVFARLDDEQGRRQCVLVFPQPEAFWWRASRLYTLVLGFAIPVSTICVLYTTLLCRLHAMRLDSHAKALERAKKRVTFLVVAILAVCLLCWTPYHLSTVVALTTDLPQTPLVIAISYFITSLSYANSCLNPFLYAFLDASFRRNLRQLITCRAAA
row,inhibition,Compound
1,27% (inactive),COc1ccc(COc2c(Cl)cnn(-c3ccc(C(C)C)cc3)c2=O)cc1
2,46% (inactive),CCOc1ccc(Oc2c(Cl)cnn(-c3ccc(C(C)C)cc3)c2=O)cc1
3,55% (inactive),CC(C)c1ccc(-n2ncc(Cl)c(Oc3ccc(C(F)(F)F)cc3)c2=O)cc1
4,-10% (inactive),COc1ccc(Oc2c(N)cnn(-c3ccc(C(C)C)cc3)c2=O)cc1
5,-3% (inactive),CC(C)c1ccc(-n2ncc(Cl)c(Oc3cc(C(C)(C)C)cc(C(C)(C)C)c3)c2=O)cc1

# Continued, compound first:
row,Compound,inhibition
1,COc1ccc(Oc2c(-n3nnc(C)c3C)cnn(-c3ccc(C(C)C)cc3)c2=O)cc1,15% (inactive)
2,COc1ccc(Oc2c(N)cnn(-c3ccc(C(F)(F)F)cc3)c2=O)cc1,31% (inactive)
3,COc1ccc(Oc2c(C(=O)N(C)C)cnn(-c3ccc(C(C)C)cc3)c2=O)cc1,7% (inactive)
4,CC(C)c1ccc(-n2ncc(NCc3ccccc3)c(Cl)c2=O)cc1,-18% (inactive)
5,COc1ccc(Oc2c(N3CCOCC3)cnn(-c3ccc(C(C)C)cc3)c2=O)cc1,37% (inactive)
6,COc1ccc(Oc2c(C(=O)O)cnn(-c3ccc(C(C)C)cc3)c2=O)cc1,-16% (inactive)
7,COc1ccc(Oc2c(N3CCN(C(=O)OC(C)(C)C)CC3)cnn(-c3ccc(C(C)C)cc3)c2=O)cc1,15% (inactive)
8,COc1ccc(Oc2c(N3CCN(C)CC3)cnn(-c3ccc(C(C)C)cc3)c2=O)cc1,-25% (inactive)
9,COc1ccc(Oc2ccnn(-c3ccc(C)cc3)c2=O)cc1,24% (inactive)
10,COc1ccc(Oc2c(NC(C)=O)cnn(-c3ccc(C(C)C)cc3)c2=O)cc1,15% (inactive)
